Values after ≈ are worked out from the molar mass of the structure shown.
Assays:
Format in all cases: cell-based
[1] = system: colistin resistant MCR (+) E. Coli strains; assay: Synergy study: colistin MIC in the presence of compound
Procedure: (§1) The MICs of the individual drugs and LC compound in combinations were determined using the broth microdilution technique as recommended by the CLSI whereby the two anti-microbial agents were added in an equal amount. (e.g.: 50 μL of Colistin: 50 μL of LC compounds). Diluted media containing compounds and antibiotics will be serially diluted 2-fold, and LC compounds and antibiotics alone or in combination will be assayed at fixed synergy concentration. In all cases, the lowest concentration at which no visible growth occurred was be recorded to be the MIC value of individual and combined antibacterial agents. The results were obtained after 24 hours of incubation.

[2] = system: colistin resistant MCR (+) E. Coli strains; assay: MIC, broth microdilution, compound alone; settings: compound alone
Procedure: (§2) MIC experiments of the antimicrobial agents were determined by a modified broth microdilution method in accordance with the Clinical and Laboratory Standards Institute (CLSI) guidelines using 96 well culture plates. In brief, serial dilutions of all plates were prepared at different concentrations (μg). The inoculum suspension was prepared by adding isolated colonies from a 18-20 hours on TSA plate into phosphate buffer (0.31 mM, pH 7.2) or in water for injection (BBraun) and adjusting the suspension to a turbidity equivalent to 0.5 McFarland Standard. Each well contained a final bacterial concentration of approximately 5×10^5 colony forming units (CFU)/mL. The plate was covered and incubated at 35° C. for 24 hours. […] For the microdilution plates, turbidity in wells can be measured at OD600 using TECAN infinite M200Pro. MIC was determined as […] concentration that gives a 99 percent inhibition.

[3] = system: colistin resistant MCR (−) E. Coli strains; assay: Synergy study: colistin MIC in the presence of compound
Procedure: as §1

[4] = system: colistin resistant MCR (−) E. Coli strains; assay: MIC, broth microdilution, compound alone
Procedure: as §2

[5] = strain 7028444207 (Table 1b), MCR (+)

SMILES	MIC ([2]; strain 6075066346, MCR (+))	MIC ([2]; strain 6083655967, MCR (+))	MIC ([2]; strain 6103645107, MCR (+))	MIC ([2]; strain 6123520276, MCR (+))	MIC ([2]; strain 7013177695, MCR (+))	MIC ([2]; strain 7023436560, MCR (+))	MIC [2, 5]	MIC ([4]; strain 6083672926, MCR (−))	MIC ([4]; strain 7023446108, MCR (−))	MIC ([4]; strain 7033607097, MCR (−))	MIC ([2]; strain 7103531927, MCR (+))	other results
CCN(CC)CCCCOc1ccc(C2COc3c(ccc4c3C=CC(C)(C)O4)C2)c(OCCCCN(CC)CC)c1 (centres unmarked) [LC105]	25 µg/mL (≈ 43.2 µM)	25 µg/mL (≈ 43.2 µM)	25 µg/mL (≈ 43.2 µM)	25 µg/mL (≈ 43.2 µM)	25 µg/mL (≈ 43.2 µM)	25 µg/mL (≈ 43.2 µM)	25 µg/mL (≈ 43.2 µM)	–	–	–	–	Colistin MIC in the presence of the compound ([1]; strain 6075066346, MCR(+), compound at 12.5 μg): 1.56 µg/mL; Colistin MIC in the presence of the compound ([1]; strain 6083655967, MCR(+), compound at 12.5 μg): 0.78 µg/mL; Colistin MIC in the presence of the compound ([1]; strain 6103645107, MCR(+), compound at 12.5 μg): 1.56 µg/mL; Colistin MIC in the presence of the compound ([1]; strain 6123520276, MCR(+), compound at 12.5 μg): 1.56 µg/mL; Colistin MIC in the presence of the compound ([1]; strain 7013177695, MCR(+), compound at 12.5 μg): 0.78 µg/mL; Colistin MIC in the presence of the compound ([1]; strain 7023436560, MCR(+), compound at 12.5 μg): 1.56 µg/mL; Colistin MIC in the presence of the compound ([1]; strain 7023444207, MCR(+), compound at 12.5 μg): 0.78 µg/mL
CCN(CC)CCCCOc1ccc(/C=C/C(=O)c2ccc(OCCCCN(CC)CC)cc2O)cc1 [LC107]	>100 µg/mL	>100 µg/mL	>100 µg/mL	>100 µg/mL	>100 µg/mL	>100 µg/mL	>100 µg/mL	–	–	–	–	Colistin MIC in the presence of the compound ([1]; strain 6075066346, MCR(+), compound at 10 μg (Table 2a: 10 ug/ml)): 3.125 µg/mL; Colistin MIC in the presence of the compound ([1]; strain 6083655967, MCR(+), compound at 10 μg (Table 2a: 10 ug/ml)): 3.125 µg/mL; Colistin MIC in the presence of the compound ([1]; strain 6103645107, MCR(+), compound at 10 μg (Table 2a: 10 ug/ml)): 3.125 µg/mL; Colistin MIC in the presence of the compound ([1]; strain 6123520276, MCR(+), compound at 10 μg (Table 2a: 10 ug/ml)): 3.125 µg/mL; Colistin MIC in the presence of the compound ([1]; strain 7013177695, MCR(+), compound at 10 μg (Table 2a: 10 ug/ml)): 3.125 µg/mL; Colistin MIC in the presence of the compound ([1]; strain 7023436560, MCR(+), compound at 10 μg (Table 2a: 10 ug/ml)): 6.25 µg/mL; Colistin MIC in the presence of the compound ([1]; strain 7023444207, MCR(+), compound at 10 μg (Table 2a: 10 ug/ml)): 6.25 µg/mL
CC(C)=CCc1c(OCCN(C)CCCN(C)C)ccc(C(=O)/C=C/c2ccc(OCCN(C)CCCN(C)C)cc2)c1O [LC140]	12.5 µg/mL (≈ 20.5 µM)	12.5 µg/mL (≈ 20.5 µM)	–	–	–	–	–	12.5 µg/mL (≈ 20.5 µM)	12.5 µg/mL (≈ 20.5 µM)	6.25 µg/mL (≈ 10.3 µM)	25 µg/mL (≈ 41.1 µM)	Colistin MIC in the presence of the compound ([3]; strain 6083672926, MCR(−), compound at 2 μg): 1.56 µg/mL; Colistin MIC in the presence of the compound ([3]; strain 7023446108, MCR(−), compound at 2 μg): 1.56 µg/mL; Colistin MIC in the presence of the compound ([3]; strain 7033607097, MCR(−), compound at 2 μg): 1.56 µg/mL
CC(C)=CCc1c(OCCNCCN)ccc(C(=O)/C=C/c2ccc(OCCNCCN)cc2)c1O [LC143]	6.25 µg/mL (≈ 12.6 µM)	6.25 µg/mL (≈ 12.6 µM)	–	–	–	–	–	12.5 µg/mL (≈ 25.2 µM)	6.25 µg/mL (≈ 12.6 µM)	6.25 µg/mL (≈ 12.6 µM)	12.5 µg/mL (≈ 25.2 µM)	Colistin MIC in the presence of the compound ([3]; strain 6083672926, MCR(−), compound at 5 μg (Table 2a: 5 ug/ml)): ≤0.0975 µg/mL; Colistin MIC in the presence of the compound ([3]; strain 7023446108, MCR(−), compound at 5 μg (Table 2a: 5 ug/ml)): ≤0.0975 µg/mL; Colistin MIC in the presence of the compound ([3]; strain 7033607097, MCR(−), compound at 5 μg (Table 2a: 5 ug/ml)): ≤0.0975 µg/mL
Cc1cc(OCCCCN(Cc2ccccn2)Cc2ccccn2)cc(OCCCCN(Cc2ccccn2)Cc2ccccn2)c1 [Orc-DPA]	–	–	–	–	–	–	–	–	–	–	–	concentration at which the compound shows synergy with colistin ([1]; against mcr-1 bacteria): 50 µg/mL

Source: patent publication US12473250B2, “Molecular design of new antibiotics and antibiotic adjuvants against MCR strains” (priority 2019, dated 2025)
